Here are results for 18 compounds from patent publication US9296741B2, “Bromodomain inhibitors” (priority 2012, dated 2016).

A value given as a limit tells only on which side of the number the result lay.

Series [1] has as its target human BRD4 first bromodomain (BDI_K57-E168) (Homo sapiens (Human), UniProt O60885). Put plainly: TR-FRET bromodomain binding assay, BRD4 first bromodomain. On the technique in general: TR-FRET usually uses a lanthanide donor and a delayed reading to cut background.
Series [2] concerns the target human BRD4 second bromodomain (BDII_E352-M457) (Homo sapiens (Human), UniProt O60885). Description: TR-FRET bromodomain binding assay, BRD4 second bromodomain.
In series [3] the test system is breast cancer cell line MX-1. Put plainly: MX-1 cell line proliferation assay. The note with it: Homo sapiens, MX1, 72 h; MX-1 cells, 3-day proliferation, Cell Titer Glo; read-out: Cellular proliferation: EC50. Type of series: cell-based, human. (In ATP-based viability assays light output follows the ATP content of the culture.)
Series [4] is described as follows: Human liver microsome stability assay. Type of series: in vitro ADME. The following applies: both sexes, human, microsomes, pH 7.4. (In general: Microsomes from liver hold many membrane-bound enzymes, among them those of drug oxidation.)
Series [5] in a line: Rat liver microsome stability assay. The class given is in vitro ADME. The note with it: rat liver microsomes (male Sprague-Dawley), 0.5 μM test compound, 0.25 mg/mL microsomal protein, pH 7.4, 37° C.; read-out: Stability in rat liver microsomes (t1/2 in minutes).
A short description of series [6]: Mouse liver microsome stability assay. Type of series: in vitro ADME. The note with it: male, CD1, mouse, microsomes, pH 7.4.
Series [7] deals with LPS induced IL-6 production. Description: LPS (lipopolysaccharide) induced IL-6 production mouse assay. The class given is in vivo. The note with it: Mus musculus, read-out: Inhibition of LPS induced IL-6 production in Mice, % inhibition at 3 mg/kg; 3 mg/kg oral, 1 h before LPS; serum IL-6 2 h after LPS.

As usually defined, the Ki is the equilibrium dissociation constant of an inhibitor or competing ligand from its target. Lower therefore signals tighter binding. As for `Cn1cc(-c2cc(S(=O)(=O)N3CCOCC3)ccc2OCC2CC2)c2cc[nH]c2c1=O` [Example 286, 4-[2-(cyclopropylmethoxy)-5-(morpholin-4-ylsulfonyl)phenyl]-6-methyl-1,6-dihydro-7H-pyrrolo[2,3-c]pyridin-7-one], the results for the inhibition constant (Ki) in series [1] and in series [2] were 12.1 nM and 5.4 nM, respectively. Besides, the EC50 in series [3] was determined as 74.6 nM. In addition, the half-life at 0.5 μM is 10 min in series [4], 19 min in series [5] and 11 min in series [6]. Further, the inhibition in vivo at 3 mg/kg in series [7] came out at 57%.
As for `CCS(=O)(=O)c1ccc(Oc2ccc(C#N)cc2)c(-c2cn(C)c(=O)c3[nH]ccc23)c1` [Example 304, 4-[4-(ethylsulfonyl)-2-(6-methyl-7-oxo-6,7-dihydro-1H-pyrrolo[2,3-c]pyridin-4-yl)phenoxy]benzonitrile], the Ki was determined as 9 nM in series [1] and 21.8 nM in series [2]. For the same compound, the EC50 in series [3] came to 32.3 nM. The half-life at 0.5 μM is greater than 120 min in series [4], 65 min in series [5] and 72 min in series [6]. Moreover, the inhibition in vivo at 3 mg/kg in series [7] was found to be 67%.
For the compound `Cn1cc(-c2cc(NS(C)(=O)=O)ccc2Oc2c(F)cc(F)cc2F)c2cc[nH]c2c1=O` [Example 49, N-[3-(6-methyl-7-oxo-6,7-dihydro-1H-pyrrolo[2,3-c]pyridin-4-yl)-4-(2,4,6-trifluorophenoxy)phenyl]methanesulfonamide], the figures for the Ki in series [1] and in series [2] were 1.7 nM and 1.5 nM, respectively. Besides, the EC50 in series [3] came to 19.6 nM. Also, the half-life at 0.5 μM in series [4] is 71 min; in series [5], 51 min; in series [6], 46 min. For the same compound, the inhibition in vivo at 3 mg/kg in series [7] is 57%.
As for `CCS(=O)(=O)c1cnc(Oc2ccc(F)cc2F)c(-c2cn(C)c(=O)c3[nH]ccc23)c1` [Example 294, 4-[2-(2,4-difluorophenoxy)-5-(ethylsulfonyl)pyridin-3-yl]-6-methyl-1,6-dihydro-7H-pyrrolo[2,3-c]pyridin-7-one], the values for the Ki in series [1] and in series [2] were 47.9 nM and 21.7 nM, respectively. Besides, the EC50 in series [3] was determined as 332 nM. The half-life at 0.5 μM in series [4], in series [5] and in series [6] was greater than 120 min throughout. Moreover, the inhibition in vivo at 3 mg/kg in series [7] was found to be 79%.
For `CCS(=O)(=O)c1ccc(OCC2CC2)c(-c2cn(C)c(=O)c3[nH]ccc23)c1` [Example 198, 4-[2-(cyclopropylmethoxy)-5-(ethylsulfonyl)phenyl]-6-methyl-1,6-dihydro-7H-pyrrolo[2,3-c]pyridin-7-one], the figures for the Ki in series [1] and in series [2] were 1.3 nM and 1.6 nM, respectively. In addition, the EC50 in series [3] was 9.3 nM. In series [6], this compound displayed a half-life at 0.5 μM of 55 min. In series [7], the inhibition in vivo at 3 mg/kg amounted to 66%.
As to `CCS(=O)(=O)c1ccc(N2CCCC2)c(-c2cn(C)c(=O)c3[nH]ccc23)c1` [Example 330, 4-[5-(ethylsulfonyl)-2-(pyrrolidin-1-yl)phenyl]-6-methyl-1,6-dihydro-7H-pyrrolo[2,3-c]pyridin-7-one], the Ki was found to be 50.9 nM in series [1] and 4.6 nM in series [2]. Also, the EC50 in series [3] was found to be 30.6 nM. For the same compound, the half-life at 0.5 μM in series [4] worked out at 29.9 min; in series [5] it was 12 min; in series [6], 28 min. Besides, the inhibition in vivo at 3 mg/kg in series [7] came out at 45%.
As for `Cn1cc(-c2cc(S(C)(=O)=O)ccc2OCC2(C)CC2)c2cc[nH]c2c1=O` [Example 231, 6-methyl-4-{2-[(1-methylcyclopropyl)methoxy]-5-(methylsulfonyl)phenyl}-1,6-dihydro-7H-pyrrolo[2,3-c]pyridin-7-one], the Ki in series [1] came to 3.7 nM; in series [2], 6.7 nM. In series [3], the EC50 was found to be 6.3 nM. Besides, the half-life at 0.5 μM in series [4] is 33 min; in series [5], greater than 120 min; in series [6], 72 min. The inhibition in vivo at 3 mg/kg in series [7] is 51%.
Turning to `Cn1cc(-c2cc(CS(C)(=O)=O)ccc2Oc2ccc(F)cc2F)c2cn[nH]c2c1=O` [Example 321, 4-{2-(2,4-difluorophenoxy)-5-[(methylsulfonyl)methyl]phenyl}-6-methyl-1,6-dihydro-7H-pyrazolo[3,4-c]pyridin-7-one], the inhibition constant (Ki) in series [1] amounted to 33.4 nM; in series [2], 32.1 nM. Besides, the EC50 in series [3] worked out at 34.4 nM. The half-life at 0.5 μM is greater than 120 min in series [4], 103 min in series [5] and greater than 120 min in series [6]. Further, the inhibition in vivo at 3 mg/kg in series [7] was 63%.
Regarding `CCS(=O)(=O)c1ccc(OC2CCC3(CC2)OCCO3)c(-c2cn(C)c(=O)c3[nH]ccc23)c1` [Example 197, 4-[2-(1,4-dioxaspiro[4.5]dec-8-yloxy)-5-(ethylsulfonyl)phenyl]-6-methyl-1,6-dihydro-7H-pyrrolo[2,3-c]pyridin-7-one], the Ki in series [1] is 1.5 nM; in series [2], 0.79 nM. Besides, in series [3], the EC50 is 11.7 nM. Besides, the half-life at 0.5 μM in series [4] worked out at 16 min; in series [5] it was 15 min; in series [6] it was 10 min. In addition, in series [7], the inhibition in vivo at 3 mg/kg is 59%.
Consider `Cn1cc(-c2cc(S(N)(=O)=O)ccc2OCC2CC2)c2cc[nH]c2c1=O` [Example 249, 4-(cyclopropylmethoxy)-3-(6-methyl-7-oxo-6,7-dihydro-1H-pyrrolo[2,3-c]pyridin-4-yl)benzenesulfonamide], for which the EC50 in series [3] turned out to be 14.4 nM. The half-life at 0.5 μM in series [4], in series [5] and in series [6] was greater than 120 min in each case. In series [7], the inhibition in vivo at 3 mg/kg turned out to be 59%.
Regarding `CCS(=O)(=O)Nc1ccc(Oc2ccc(F)cc2F)c(-c2nn(C)c(=O)c3[nH]ccc23)c1` [Example 160, N-[4-(2,4-difluorophenoxy)-3-(6-methyl-7-oxo-6,7-dihydro-1H-pyrrolo[2,3-d]pyridazin-4-yl)phenyl]ethanesulfonamide], the EC50 in series [3] was found to be 119 nM. The half-life at 0.5 μM in series [4] was 67 min; in series [5], 119 min; in series [6], 21 min. Further, the inhibition in vivo at 3 mg/kg in series [7] is 51%.
In the same order, the values of `Cn1cc(-c2cc(NS(C)(=O)=O)cc(F)c2Oc2ccccc2)c2cc[nH]c2c1=O` [Example 24, N-[3-fluoro-5-(6-methyl-7-oxo-6,7-dihydro-1H-pyrrolo[2,3-c]pyridin-4-yl)-4-phenoxyphenyl]methanesulfonamide] are 12.6 nM, 29 min, 5 min, 55 min and 58%.
Regarding `Cn1cc(-c2cc(S(N)(=O)=O)cnc2OC2CCOC2)c2cc[nH]c2c1=O` (stereo not shown) [Example 86, 5-(6-methyl-7-oxo-6,7-dihydro-1H-pyrrolo[2,3-c]pyridin-4-yl)-6-(tetrahydrofuran-3-yloxy)pyridine-3-sulfonamide], the EC50 in series [3] was determined as 182 nM. For the same compound, the figures for the half-life at 0.5 μM in series [4], in series [5] and in series [6] were greater than 120 min, greater than 120 min and 43 min, respectively. For the same compound, in series [7], the inhibition in vivo at 3 mg/kg was 55%.
For the compound `Cn1cc(-c2cc(S(C)(=O)=O)ccc2NCC2CC2)c2cc[nH]c2c1=O` [Example 329, 4-{2-[(cyclopropylmethyl)amino]-5-(methylsulfonyl)phenyl}-6-methyl-1,6-dihydro-7H-pyrrolo[2,3-c]pyridin-7-one], the EC50 in series [3] was determined as 17.1 nM. Further, the half-life at 0.5 μM in series [4], in series [5] and in series [6] was greater than 120 min in each case. The inhibition in vivo at 3 mg/kg in series [7] came out at 63%.
`CNS(=O)(=O)c1cnc(NCC2CC2)c(-c2cn(C)c(=O)c3[nH]ccc23)c1` [Example 210, 6-[(cyclopropylmethyl)amino]-N-methyl-5-(6-methyl-7-oxo-6,7-dihydro-1H-pyrrolo[2,3-c]pyridin-4-yl)pyridine-3-sulfonamide]: the EC50 in series [3] turned out to be 36.7 nM. In addition, the half-life at 0.5 μM was 104 min in series [4], greater than 120 min in series [5] and greater than 120 min in series [6]. The inhibition in vivo at 3 mg/kg in series [7] came to 78%.
Take `Cn1cc(-c2cc(CS(C)(=O)=O)ccc2Oc2ccc(F)cc2F)c2cc[nH]c2c1=O` [Example 287, 4-{2-(2,4-difluorophenoxy)-5-[(methylsulfonyl)methyl]phenyl}-6-methyl-1,6-dihydro-7H-pyrrolo[2,3-c]pyridin-7-one]: in series [3], the EC50 is 19.5 nM. The results for the half-life at 0.5 μM in series [4], in series [5] and in series [6] were greater than 120 min, 116 min and 29 min, respectively. Moreover, the inhibition in vivo at 3 mg/kg in series [7] came out at 73%.
As for `CCS(=O)(=O)c1ccc(OCC2CC2)c(-c2nn(C)c(=O)c3[nH]ccc23)c1` [Example 204, 4-[2-(cyclopropylmethoxy)-5-(ethylsulfonyl)phenyl]-6-methyl-1,6-dihydro-7H-pyrrolo[2,3-d]pyridazin-7-one], in series [3], the EC50 was 82.9 nM. In addition, the half-life at 0.5 μM in series [4] is greater than 120 min; in series [5], 81 min; in series [6], 68 min. Also, in series [7], the inhibition in vivo at 3 mg/kg turned out to be 35%.
Taken in the same sequence, the figures for `CNS(=O)(=O)c1cnc(Oc2ccc(F)cc2F)c(-c2cn(C)c(=O)c3[nH]ccc23)c1` [Example 246, 6-(2,4-difluorophenoxy)-N-methyl-5-(6-methyl-7-oxo-6,7-dihydro-1H-pyrrolo[2,3-c]pyridin-4-yl)pyridine-3-sulfonamide] were 97.5 nM, 52 min, 53 min, 56 min and 71%.
